Source: patent US8158670B2 (priority 1996, dated 2012)
Entries after “also recorded” stand apart in the source; their conditions may differ.

How the values were obtained:
[1] = system: target (BO54 and M14) and non-target (HT29) cells; type: cell-based
[2] = system: vascular smooth muscle cells; assay: In vitro DNA (3H-thymidine) and protein (3H-leucine) synthesis inhibition; type: cell-based; details: 24 hour assays, 5% FBS
Procedure: The ability of various therapeutic agents to inhibit DNA synthesis and protein synthesis in vascular smooth muscle cells was tested. ^3H-leucine and ^3H-thymidine uptake and cytotoxicity assays were conducted in accordance with the following protocols.
5 minute exposure: ^3H-leucine uptake: Vascular smooth muscle cells at 40,000 cells/ml were seeded in sterile 24 well plates at 1 ml/well. The plates were incubated overnight at 37° C., 5% CO2, 95% air in a humidified atmosphere (saturation). Log dilutions of the therapeutic agent of interest were incubated with the vascular smooth muscle cells for 5 minutes or 24 hours. […] Vials were counted on a Beckman LS2800 liquid scintillation counter interfaced with Beckman “Data Capture” software for conversion to a Lotus 1-2-3® file and analysis using Lotus 1-2-3®.
5 minute exposure: ^3H-thymidine uptake: Vascular smooth muscle cells were incubated in complete medium with 5% FBS (Gibco) overnight at 37° C. in a humidified, 5% CO2 environment in sterile 24 well plates. […] The cells were visually scored for viability and cell number. […] Vials were counted on a Beckman LS2800 liquid scintillation counter interfaced with Beckman “Data Capture” software for conversion to a Lotus 1-2-3® file and analysis using Lotus 1-2-3®.

[3] = system: vascular smooth muscle cells of balloon-traumatized arteries; type: in vivo, pig; details: pig, in vivo
[4] = system: Vascular smooth muscle (BO54) cells; type: cell-based, baboon

With Pseudomonas exotoxin [PE] the “metabolic activity measured in the MTT assay” value [1] was “nonspecific cytotoxicity”.
`CN[C@@H]1C[C@H]2O[C@@](C)([C@@H]1OC)n1c3ccccc3c3c4c(c5c6ccccc6n2c5c31)C(=O)NC4` [staurosporin] was tested, and the “therapeutic range: 3H-leucine (protein synthesis) versus 3H-thymidine (DNA synthesis) inhibition” value [2] was “exhibits a differential between ^3H-leucine and ^3H-thymidine uptake” and the “BRDU uptake (cell proliferation)” value [3] was “inhibits target cell proliferation; also recorded: inhibited BRDU uptake (i.e., cell proliferation) without killing the vascular smooth muscle cells”.
For `CC(=O)O[C@@H]1/C=C\[C@@](C)(O)C(=O)[C@@H](C)C/C=C\[C@H]2[C@H](O)C(C)=C(C)[C@H]3C(Cc4ccccc4)NC(=O)[C@]132` (stereo partly shown) [cytochalasin C], the “minimum effective dose (MED)” value [4] was 0.01 µg/mL.
